Key:
ischemic rats = assay: Volume of the infarction after cerebral ischemia, magnetic resonance imaging (MRI); assay type: in vivo, Sprague-Dawley (SD) rats
Excerpt: (§1) The ischemic rats are induced by an ischemia-reperfusion model to simulate transient focal cerebral ischemia in rats. Test animals are male Sprague-Dawley (SD) rats weighing 250-300 g. The rats are anesthetized with chloral hydrate (0.4 g/kg IP) and subjected to cerebral ischemia. The ischemia-reperfusion model is induced by ligations of bilateral common carotid arteries (CCAs) and a right middle cerebral artery (MCA). The bilateral CCAs are clamped with non-traumatic arterial clips, and the right MCA is ligated with an 10-0 nylon suture. After 90 minutes ischemia, the suture on the MCA and the arterial clips on CCAs are removed to allow reperfusion. Core body temperature is monitored with a thermistor probe (Hewlett-Packard Model 21090A probe, Hewlett-Packard Company, Andover, Mass.), and maintained at 37° C. with a heating pad during anesthesia. After recovery from anesthesia, rat body temperature is maintained at 37° C. with a heat lamp.
Further, the ischemic rats are assigned into 5 groups, 4 test groups and 1 control group. The ischemic rats of the test groups are injected with 1 mg/kg of the Compound 1, 30 mg/kg of the genipin, 1 mg/kg of the Compound 1 and 100 mg/kg of 2-ME2, and 1 mg/kg of the Compound 1 and the LV-Bmi-1-sh, respectively. The ischemic rats of the control group are injected with the vehicle. At 7 days after the injection, the ischemic rats of the different groups are anesthetized, and the volume of the infarction thereof is assessed by a magnetic resonance imaging (MRI).

HIF-1α = HIF-1α expressions of the NSCs, Western blot; assay type: cell-based, mice
Procedure: (§2) To prepare the NSCs, after removal of meninges, subventricular zones (SVZ) of lateral ventricles from adult mice brain (4 week-of-age) are aseptically isolated and dissociated as previously described (J Cell Sci 2006; 119, 4467-4474). All steps are operated under sterile conditions. Then, neurosphere culture are prepared in neurobasal (NB) medium (Gibco BRL) supplemented with 2% of B27 (Gibco BRL), 2 mM of L-glutamine (PAN Biotech), 100 U/ml of penicillin/0.1 […] of streptomycin (Gibco BRL). For maintenance and expansion of the cultures, the NB/B27 is further supplemented with 2 μg/mL of heparin (Sigma), 20 ng/mL of FGF-2 (R&D Systems) and 20 ng/mL of EGF (R&D Systems). Neurosphere cultures are maintained at 37° C. in a humidified incubator with 5% CO2. For clonal/low density cultures, primary neurospheres grown at high density are dissociated into a single cell suspension and reseeded into 96-well plates at 100 cells per ml of media and the number of newly formed neurospheres is counted after 7 days. In addition, the Bmi-1 expressions, SOX2 expressions, Nestin expressions, Musashi-1 expressions, BrdU expressions and ki-67 expressions of the newly formed neurospheres are determined by the immunofluorescence staining. […]
(§3) The NSCs are exposed to the various dosages of the Compound 1 (0.1 μM, 1 μM, 10 μM and 100 μM) and cultured in the neurosphere culture. The HIF-1α expressions and the Bmi-1 expressions of the NSCs are detected by the Western blot analysis. […]
(§4) In another example, the HIF-1α expressions of the NSCs are inhibited and then 1 μM of the Compound 1 is added into the medium of the NSCs. The HIF-1α expression and the Bmi-1 expressions of the NSCs are detected by the Western blot analysis. […]
(§5) In still another example, the NSCs are exposed to 1 μM of the Compound 1 and further cultured for various lengths of time (0.5 hour, 1 hour, 4 hours, 8 hours, 16 hours and 24 hours). The HIF-1α expressions and the Bmi-1 expressions of the NSCs are detected by the Western blot analysis. […]

Bmi-1 [1] = assay: Bmi-1 expressions of the NSCs, Western blot; assay type: cell-based, mice
Procedure: as §2, §3, §4, §5

[2] = test system: NSC in the brain of the ischemic rats; assay: Proliferation marker expressions (BrdU, ki-67) in the SVZ and DG of the ischemic rats; assay type: in vivo, Sprague-Dawley (SD) rats
Excerpt: as §1
The ischemic rats treated with different dosages of the Compound 1 (0.1 mg/kg, 1 mg/kg and 10 mg/kg) and the ischemic rats reduced the Bmi-1 expressions or the HIF-1α expressions and then treated with 1 mg/kg of the Compound 1 are decapitated, and the brain tissues thereof are performed the immunofluorescence staining to detect the proliferation marker expressions (BrdU and ki-67) in the brains of the ischemic rats.

Bmi-1 [3] = assay: Bmi-1 expressions of the NSCs in the SVZ and the DG of the ischemic rats, immunofluorescence staining; assay type: in vivo, Sprague-Dawley (SD) rats
[4] = 1 mg/kg, 7 days after the injection, FIGS. 18A, 18B
[5] = 1 μM, 0.5 to 24 hours tested, FIG. 10C
[6] = 0.1, 1, 10, 100 μM, normoxia (21% O2), in particular 1 μM, FIG. 10A
[7] = 1 μM 2-ME2 for 16 hours, then 1 μM Compound 1, FIG. 10B
[8] = 2-ME2 treatment plus 1 mg/kg Compound 1

SMILES | effect on the reduction of the infarction area, compared with genipin (ischemic rats; 1 mg/kg Compound 1 vs 30 mg/kg genipin, 7 days) | area of the largest infarction (MRI) (ischemic rats; [4]) | volume of the infarction (MRI) (ischemic rats; [4]) | exposure time at which the NSCs express the most HIF-1α (HIF-1α; [5]) [h] | HIF-1α expressions of the NSCs (HIF-1α; [6]) | exposure time at which the NSCs express the most Bmi-1 (Bmi-1 [1]; [5]) [h] | Bmi-1 expressions of the NSCs (Bmi-1 [1]; [6]) | numbers of BrdU+ cells in the SVZ and the DG of the brains of the ischemic rats ([2]; 0.1, 1, 10 mg/kg vs control, in particular 1 mg/kg, FIGS. 15A to 15D) | numbers of ki-67+ cells in the SVZ and the DG of the brains of the ischemic rats ([2]; 0.1, 1, 10 mg/kg vs control, in particular 1 mg/kg, FIGS. 15E to 15H) | number of Bmi-1+Nestin+ NSCs in the SVZ and the DG (Bmi-1 [3]; 0.1, 1, 10 mg/kg vs control, in particular 1 mg/kg, FIGS. 14A to 14D) | Compound-1-induced reduction of the volume of the infarction (MRI) (ischemic rats; 100 mg/kg 2-ME2 plus 1 mg/kg Compound 1, 7 days) | enhancement of the HIF-1α expressions induced by the Compound 1 in NSCs (HIF-1α; [7]) | enhancement of the Bmi-1 expressions induced by the Compound 1 in NSCs (Bmi-1 [1]; [7]) | Compound 1 increased numbers of the BrdU+ cells in the SVZ and the DG [2, 8] | Compound 1 increased numbers of the ki-67+ cells in the SVZ and the DG [2, 8] | Compound-1-induced enhancement of Bmi-1+Nestin+ NSCs numbers (Bmi-1 [3]; 100 mg/kg 2-ME2 intraperitoneal plus 1 mg/kg Compound 1)
COC(=O)C1=CO[C@@H](O)[C@@H]2C(COC(=O)[C@@H](N)Cc3ccccc3)=CC[C@H]12 [Compound 1] | better than that of the genipin | significantly reduced | significantly reduced | 0.5 | increased | 16 | increased | significant enhancement | significant enhancement | significantly increases |  |  |  |  |  | 
COc1cc2c(cc1O)CC[C@@H]1[C@@H]2CC[C@]2(C)[C@@H](O)CC[C@@H]12 [Compound 2-ME2, 2-Methoxyestradiol, reference compound] |  |  |  |  |  |  |  |  |  |  | abolishes | abolished | abolished | abolishes | abolishes | inhibits
